Data: patent US20220144853A1, “IMIDAZOLINE DERIVATIVES AS CXCR4 MODULATORS” (Université de Paris, priority 2019, published 2022)
Counter-ions that a name gives are not always drawn.

melting point	Compound
140 to 160 °C	CC1(C)CN=C(SCC2=CSC3=NC(C)(C)C(C)(C)N23)N1 (as salt: hydrochloride) [Example 20, 3-(((5,5-dimethyl-4,5-dihydro-1H-imidazol-2-yl)thio)methyl)-5,5,6,6-tetramethyl-5,6-dihydroimidazo[2,1-b]thiazole dihydrochloride]
220 to 230 °C	CC1(C)CN=C(SCC2=CSC3=NCCN23)N1 (as salt: hydrochloride) [Example 21, 3-(((5,5-dimethyl-4,5-dihydro-1H-imidazol-2-yl)thio)methyl)-5,6-dihydroimidazo[2,1-b]thiazole dihydrochloride]
> 250 °C	CC1(C)CN2C(CSC3=N[C@@H]4CCC[C@@H](C4)N3)=CSC2=N1 (as salt: hydrochloride) [Example 22, 3-((((1R,5S)-2,4-diazabicyclo[3.3.1]non-2-en-3-yl)thio)methyl)-6,6-dimethyl-5,6-dihydroimidazo[2,1-b]thiazole dihydrochloride]
> 250 °C	CC1(C)CN2C(CSC3=N[C@H]4COC[C@H]4N3)=CSC2=N1 (as salt: hydrochloride) [Example 25, (3aR,6aS)-2-(((6,6-dimethyl-5,6-dihydroinidazo[2,1-b]thiazol-3-yl)methyl)thio)-3a,4,6,6a-tetrahydro-1H-furo[3,4-d]imidazole dihydrochloride]
> 250 °C	C1=C(CSC2=NCCN2)N2CCCN=C2S1 (as salt: hydrochloride) [Example 26, 3-(((4,5-dihydro-1H-imidazol-2-yl)thio)methyl)-6,7-dihydro-5H-thiazolo[3,2-a]pyrimidine dihydrochloride]
> 250 °C	CC1(C)CN=C(SCC2=CSC3=NC(C)(C)CN23)NC1 (as salt: hydrochloride) [Example 28, 3-(((5,5-dimethyl-1,4,5,6-tetrahydropyrimidin-2-yl)thio)methyl)-6,6-dimethyl-5,6-dihydroimidazo[2,1-b]thiazole dihydrochloride]
> 250 °C	C1=C(CSC2=NCCCN2)N2CCCN=C2S1 (as salt: hydrochloride) [Example 29, 3-(((1,4,5,6-tetrahydropyrimidin-2-yl)thio)methyl)-6,7-dihydro-5H-thiazolo[3,2-a]pyrimidine dihydrochloride]
176 to 178 °C	CCCCC1CN=C(SCC2=CSC3=NCCN23)N1 (stereo not drawn) (as salt: hydrochloride) [Example 30, 3-(((5-butyl-4,5-dihydro-1H-imidazol-2-yl)thio)methyl)-5,6-dihydroimidazo[2,1-b]thiazole dihydrochloride]
169 to 175 °C	CC1(C)CN=C2SC=C(CSC3=NCC(C)(C)N3)N2C1 (as salt: hydrochloride) [Example 34, 3-(((5,5-dimethyl-4,5-dihydro-1H-imidazol-2-yl)thio)methyl)-6,6-dimethyl-6,7-dihydro-5H-thiazolo[3,2-a]pyrimidine dihydrochloride]
100 to 102 °C	C1=C(CSC2=NCCCN2)N2CCN=C2S1 (as salt: hydrochloride) [Example 35, 3-(((1,4,5,6-tetrahydropyrimidin-2-yl)thio)methyl)-5,6-dihydroimidazo[2,1-b]thiazole dihydrochloride]
> 250 °C	C1=C(CSC2=NCCCN2)N2CCCCN=C2S1 (as salt: hydrochloride) [Example 37, 3-(((1,4,5,6-tetrahydropyrimidin-2-yl)thio)methyl)-5,6,7,8-tetrahydrothiazolo[3,2-a][1,3]diazepine dihydrochloride]
225 to 231 °C	CC1(C)CN2C(CSC3=NCC4(CCCCC4)N3)=CSC2=N1 (as salt: hydrochloride) [Example 39, 3-(((1,3-diazaspiro[4.5]dec-2-en-2-yl)thio)methyl)-6,6-dimethyl-5,6-dihydroimidazo[2,1-b]thiazole dihydrochloride]
245 to 249 °C	CC1(C)CN2C(CSC3=NCC4CCCCC4N3)=CSC2=N1 (stereo not drawn) (as salt: hydrochloride) [Example 40, 6,6-dimethyl-3-(((1,4,4a,5,6,7,8,8a-octahydroquinazolin-2-yl)thio)methyl)-5,6-dihydroimidazo[2,1-b]thiazole dihydrochloride]
240 to 245 °C	CC1(C)CN=C(SCCc2cccc3ncccc23)N1 (as salt: hydrochloride) [Example 41, 5-(2-((5,5-dimethyl-4,5-dihydro-1H-imidazol-2-yl)thio)ethyl)quinoline dihydrochloride]
190 to 198 °C	CC1(C)CN=C(SCC2=CSC3=NC4(CCCCC4)CN23)N1 (as salt: hydrochloride) [Example 42, 3′-(((5,5-dimethyl-4,5-dihydro-1H-imidazol-2-yl)thio)methyl)-5′H-spiro[cyclohexane-1,6′-imidazo[2,1-b]thiazole] dihydrochloride]
241 to 245 °C	CC1(C)CN=C(SCC2=CSC3=NC4CCCCC4CN23)N1 (stereo not drawn) (as salt: hydrochloride) [Example 43, 3-(((5,5-dimethyl-4,5-dihydro-1H-imidazol-2-yl)thio)methyl)-5a,6,7,8,9,9a-hexahydro-5H-thiazolo[2,3-b]quinazoline dihydrochloride]
230 to 233 °C	C1=C(CSC2=N[C@@H]3CCCC[C@H]3N2)N2CCN=C2S1 (as salt: hydrochloride) [Example 44, 3-((((3aR,7aR)-3a,4,5,6,7,7a-hexahydro-1H-benzo[d]imidazol-2-yl)thio)methyl)-5,6-dihydroimidazo[2,1-b]thiazole dihydrochloride]
> 250 °C	C1=C(CSC2=N[C@@H]3CCCC[C@H]3N2)N2CCCN=C2S1 (as salt: hydrochloride) [Example 45, 3-((((3aR,7aR)-3a,4,5,6,7,7a-hexahydro-1H-benzo[d]imidazol-2-yl)thio)methyl)-6,7-dihydro-5H-thiazolo[3,2-a]pyrimidine dihydrochloride]
> 250 °C	C1=C(CSC2=N[C@@H]3CCCC[C@H]3N2)N2CCCCN=C2S1 (as salt: hydrochloride) [Example 46, 3-((((3aR,7aR)-3a,4,5,6,7,7a-hexahydro-1H-benzo[d]imidazol-2-yl)thio)methyl)-5,6,7,8-tetrahydrothiazolo[3,2-a][1,3]diazepine dihydrochloride]
50 to 53 °C	C1=C(CSC2=NCC(Cc3ccccc3)N2)N2CCCN=C2S1 (stereo not drawn) (as salt: hydrochloride) [Example 48, 3-(((5-benzyl-4,5-dihydro-1H-imidazol-2-yl)thio)methyl)-6,7-dihydro-5H-thiazolo[3,2-a]pyrimidine dihydrochloride]
234 to 237 °C	CC(C)C1CN=C(SCC2=CSC3=NC(C)(C)CN23)N1 (stereo not drawn) (as salt: hydrochloride) [Example 49, 3-(((5-isopropyl-4,5-dihydro-1H-imidazol-2-yl)thio)methyl)-6,6-dimethyl-5,6-dihydroimidazo[2,1-b]thiazole dihydrochloride]
245 to 247 °C	CC1(C)CN=C(SCC2=CSC3=NC(c4ccccc4)CN23)N1 (stereo not drawn) (as salt: hydrochloride) [Example 50, 3-(((5,5-dimethyl-4,5-dihydro-1H-imidazol-2-yl)thio)methyl)-6-phenyl-5,6-dihydroimidazo[2,1-b]thiazole dihydrochloride]
150 to 154 °C	CCCCC1CN=C(SCC2=CSC3=NC(Cc4ccccc4)CN23)N1 (stereo not drawn) (as salt: hydrochloride) [Example 51, 6-benzyl-3-(((5-butyl-4,5-dihydro-1H-imidazol-2-yl)thio)methyl)-5,6-dihydroinidazo[2,1-b]thiazole dihydrochloride]
227 to 232 °C	CC(C)C1CN2C(CSC3=NCC(C)(C)N3)=CSC2=N1 (stereo not drawn) (as salt: hydrochloride) [Example 52, 3-(((5,5-dimethyl-4,5-dihydro-1H-imidazol-2-yl)thio)methyl)-6-isopropyl-5,6-dihydroimidazo[2,1-b]thiazole dihydrochloride]
110 to 120 °C	CC1(C)CN2C(CSC3=NCC(c4ccccc4)N3)=CSC2=N1 (stereo not drawn) (as salt: hydrochloride) [Example 53, 6,6-dimethyl-3-(((4-phenyl-4,5-dihydro-1H-imidazol-2-yl)thio)methyl)-5,6-dihydroimidazo[2,1-b]thiazole dihydrochloride]
245 to 249 °C	CN1CCCN=C1SCC1=CSC2=NC(C)(C)CN12 (as salt: hydrochloride) [Example 57, 6,6-dimethyl-3-(((1-methyl-1,4,5,6-tetrahydropyrimidin-2-yl)thio)methyl)-5,6-dihydroimidazo[2,1-b]thiazole dihydrochloride]
154 to 160 °C	CC(C)[C@@H]1N=C(SCC2=CSC3=NC(C)(C)CN23)N[C@H]1C(C)C (as salt: hydrochloride) [Example 58, 3-((((4S,5S)-4,5-diisopropyl-4,5-dihydro-1H-imidazol-2-yl)thio)methyl)-6,6-dimethyl-5,6-dihydroimidazo[2,1-b]thiazole dihydrochloride]
117 to 121 °C	C1=C(CSC2=NCC(Cc3ccccc3)N2)N2CC(Cc3ccccc3)N=C2S1 (stereo not drawn) (as salt: hydrochloride) [Example 60, 6-benzyl-3-(((5-benzyl-4,5-dihydro-1H-imidazol-2-yl)thio)methyl)-5,6-dihydroimidazo[2,1-b]thiazole dihydrochloride]
125 to 130 °C	C1=C(CSC2=N[C@@H]3CCCC[C@H]3N2)N2CC(Cc3ccccc3)N=C2S1 (stereo partly drawn) (as salt: hydrochloride) [Example 61, 6-benzyl-3-((((3aR,7aR)-3a,4,5,6,7,7a-hexahydro-1H-benzo[d]imidazol-2-yl)thio)methyl)-5,6-dihydroimidazo[2,1-b]thiazole dihydrochloride]
169 to 180 °C (dec.)	CC1(C)CN2C(=N1)SC(I)=C2CSC1=NCC(C)(C)N1 (as salt: hydrochloride) [Example 66, 3-(((5,5-dimethyl-4,5-dihydro-1H-imidazol-2-yl)thio)methyl)-2-iodo-6,6-dimethyl-5,6-dihydroimidazo[2,1-b]thiazole dihydrochloride]
